The text below walks through data of patent US8110660B2, “Soluble ENPP4 protein” (Ono Pharmaceutical Co., Ltd., priority 2004, dated 2012).

Where only a bound is given, the exact number is not on record here.

Assay type in all cases: biochemical
Assay [1] deals with T1, purified soluble type ENPP5 protein (Homo sapiens, UniProt Q9UJA9).
T1 construct: signal peptide; base No. 1 to 66, mature protein; base No. 67 to 1287; made in house; host or cells: HEK293T (secreted into culture supernatant, His-Trap purified)
T1 sequence (Q9UJA9 23-429): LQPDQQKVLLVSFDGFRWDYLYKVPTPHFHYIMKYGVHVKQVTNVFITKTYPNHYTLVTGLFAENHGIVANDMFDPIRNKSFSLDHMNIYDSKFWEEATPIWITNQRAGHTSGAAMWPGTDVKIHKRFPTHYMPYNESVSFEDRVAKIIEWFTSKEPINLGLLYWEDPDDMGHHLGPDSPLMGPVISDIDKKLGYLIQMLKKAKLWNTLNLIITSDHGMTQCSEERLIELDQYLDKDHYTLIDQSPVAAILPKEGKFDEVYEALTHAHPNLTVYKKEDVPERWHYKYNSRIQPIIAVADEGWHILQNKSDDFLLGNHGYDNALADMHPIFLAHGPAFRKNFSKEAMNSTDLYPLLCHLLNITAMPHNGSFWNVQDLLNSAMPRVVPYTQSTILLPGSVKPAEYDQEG
The experiment in a line: Inhibition of light-emitting substrate degradation by soluble type ENPP5 protein. Here is the method:
0.2 μg of the purified soluble type ENPP5 protein was mixed in 90 μL of assay buffer (20 mM HEPES, 140 mM NaCl, 5 mM KCl, 10 mM Glucose, pH 7.5), and 10 μL of each of 10 mM pNP-PP and a solution of a test compound was added thereto, and then was kept at 37° C. for 2 hours. Then, absorption of light of 405 nm was measured and thereby, the amount of p-nitorphenol was quantitatively determined and thereby the inhibitory activity of […] pNP-PP degradation of each of the test compound was examined. By using Neurotransmitter Library Plate 10 (Purinergic & adenosines) ver. 2 (manufactured by BIOMOL Inc.) as test compounds, and the inhibitory activity of pNP-TMP degradation of each of 1 mM compounds was measured and, 70% or more of the inhibitory activity was detected in 2-Methyl-ATP, and 80% or more of the inhibitory activity was detected in ADP, UDP, and GDP.

For assay [2], the target named is T1, purified soluble type ENPP5 protein. The experiment in a line: Identification of nucleic acids to be ENPP5 substrate (HPLC). The settings on record: 200 μM nucleic acid, pH 7.5, 37° C., 2, 5 or 8 hours, FIG. 15. Here is the method:
(§1) 0.5 μg of the purified soluble type ENPP5 protein was mixed in 500 μL of assay buffer (20 mM HEPES, 140 mM NaCl, 5 mM KCl, 10 mM Glucose, pH 7.5), and then, each kind of nucleic acids were added thereto so that its final concentration became 200 μM. The mixture was performed at 37° C. for 2, 5, or 8 hours. Then, by using HPLC (Unison-UKC18 reversed-phase column 30×2 mm, manufactured by Imtakt Co., Ltd.) (mobile phase: 50 mM sodium phosphate buffer (pH 6.4), 5 mM tetrabutylammonium hydrogen sulfate, 1 mM EDTA, 2-30% acetonitrile), the nucleic acids were separated from the reacted solution, and the substrates and the reacted products were quantitatively determined.

The target in assay [3] is T2, purified soluble type ENPP4 protein (Homo sapiens, UniProt Q9Y6X5).
T2 construct: signal peptide; base No. 1 to 45, mature protein; base No. 46 to 1212; made in house; host or cells: HEK293T (secreted into culture supernatant, His-Trap purified)
T2 sequence (Q9Y6X5 16-404): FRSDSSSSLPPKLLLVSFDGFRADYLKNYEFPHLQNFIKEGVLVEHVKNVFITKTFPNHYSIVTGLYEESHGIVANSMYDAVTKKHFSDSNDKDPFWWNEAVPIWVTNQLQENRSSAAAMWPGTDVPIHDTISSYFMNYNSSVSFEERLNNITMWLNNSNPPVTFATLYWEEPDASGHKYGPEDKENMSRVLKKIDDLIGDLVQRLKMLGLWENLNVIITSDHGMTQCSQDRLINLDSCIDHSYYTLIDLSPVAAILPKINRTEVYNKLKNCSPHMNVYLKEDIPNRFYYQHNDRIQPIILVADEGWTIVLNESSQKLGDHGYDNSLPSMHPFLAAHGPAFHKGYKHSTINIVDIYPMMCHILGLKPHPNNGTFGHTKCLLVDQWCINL
The experiment in a line: Identification of nucleic acids to be ENPP4 substrate (HPLC). Conditions: for degradation by ENPP4 (NMP detected as reacted product) / degradation amount / activity of degrading by ENPP4: 200 μM nucleic acid, HPLC, FIG. 15; for degradation by ENPP4 (NMP detected as reacted product): pH 8.5, 37° C., 2, 5 or 8 hours. Here is the method: as §1, with “ENPP4” for “ENPP5”, “8.5),” for “7.5),”, “kept” for “performed”

Assay [4] has as its target T2, purified soluble type ENPP4 protein. The assay can be described thus: Inhibition of pNP-TMP or pNP-PP degradation by soluble type ENPP4 protein. Here is the method: 0.2 μg of the purified soluble type ENPP4 protein was mixed in 90 μL of assay buffer (20 mM HEPES, 140 mM NaCl, 5 mM KCl, 10 mM Glucose, pH 8.5), and 10 μL of each of 10 mM pNP-TMP or pNP-PP and a solution of a test compound was added thereto, and then was kept at 37° C. for 2 hours. Then, absorption of light of 405 nm was measured and thereby, the amount of p-nitorphenol was quantitatively determined and thereby the inhibitory activity of pNP-TMP or pNP-PP degradation of each test compound was examined. By using pNP-TMP and Neurotransmitter Library Plate 10 (Purinergic & adenosines) ver. […] Moreover, 60% or more of the inhibitory activity was detected in CDP-Choline, and 40% or more of the inhibitory activity was detected in P1P3-DiAdenosine-triphosphate (AP(3)A), P1P6-DiAdenosine-hexaphosphate (AP(6)A).

For assay [5], the target named is T3, purified soluble type ENPP6 protein (Homo sapiens, UniProt Q6UWR7).
T3 construct: signal peptide; base No. 1 to 66, mature protein; base No. 67 to 1269; made in house; host or cells: HEK293T (secreted into culture supernatant, His-Trap purified)
T3 sequence (Q6UWR7 23-423): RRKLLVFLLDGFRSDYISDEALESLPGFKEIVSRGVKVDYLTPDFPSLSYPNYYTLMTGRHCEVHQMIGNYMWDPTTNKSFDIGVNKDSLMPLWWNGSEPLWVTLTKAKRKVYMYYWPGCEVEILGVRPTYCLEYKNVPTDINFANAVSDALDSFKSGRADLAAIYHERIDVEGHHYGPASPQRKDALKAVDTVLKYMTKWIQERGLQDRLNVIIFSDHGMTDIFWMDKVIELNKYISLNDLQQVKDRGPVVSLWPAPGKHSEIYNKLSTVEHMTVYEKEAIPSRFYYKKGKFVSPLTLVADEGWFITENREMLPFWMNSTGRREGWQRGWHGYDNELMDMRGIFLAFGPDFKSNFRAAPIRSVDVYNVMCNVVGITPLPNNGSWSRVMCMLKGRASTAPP
The assay can be described thus: Inhibition of light-emitting substrate degradation by soluble type ENPP6 protein. Here is the method:
0.2 μg of the purified soluble type ENPP6 protein was mixed in 90 μL of assay buffer (20 mM HEPES, 140 mM NaCl, 5 mM KCl, 1 mM CaCl2, 1 mM MgCl2, 10 mM Glucose, pH 9.6), and 10 μL of each of 10 mM pNP-PP and a solution of a test compound was added thereto, and was kept at 37° C. for 2 hours. Then, absorption of light of 405 nm was measured and thereby, the amount of p-nitorphenol was quantitatively determined and thereby the inhibitory activity of […] degradation of each of the test compounds was examined. By using Neurotransmitter Library Plate 10 (Purinergic & adenosines) ver. 2, Bioactive Lipid Library ver. 3 (manufactured by BIOMOL Inc.), and various lysophospholipids as test compounds, the inhibitory activity of pNP-PP degradation was measured and, 80% or more of the inhibitory activity was detected in Glycerophosphorilcholine, and 70% or more of the inhibitory activity in Lysophosphatidylcholine, 1-Methyladenosine, 3-Deazaadenosine, ATP, and ADP(1 mM), and 60% or more of the inhibitory activity in N6-Methyladenosine, N6-Methyl-2′-deoxy-adenosine, S-Adenosyl-L-Homocysteine, and 2-MethylthioATP.

Consider `Cc1nc(N)c2ncn(C3OC(COP(=O)(O)OP(=O)(O)OP(=O)(O)O)C(O)C3O)c2n1` (centres unmarked) [2-Methyl-ATP], for which, in assay [1] (1 mM compound, pH 7.5, 37° C., 2 hours), the “inhibitory activity of pNP-TMP degradation” value is reported as at least 70%.

With `Nc1ncnc2c1ncn2[C@@H]1O[C@H](COP(=O)(O)OP(=O)(O)O)[C@@H](O)[C@H]1O` [ADP], the “degradation by ENPP5 (NMP detected as reacted product)” value in assay [2] was “degraded by ENPP5”. For the same compound, the “degradation by ENPP4 (NMP detected as reacted product)” value (from here on “degradation by ENPP4”) in assay [3] is listed as “degraded by ENPP4”.

On to `Nc1ncnc2c1ncn2[C@@H]1O[C@H](COP(=O)(O)OP(=O)(O)OP(=O)(O)OC[C@H]2O[C@@H](n3cnc4c(N)ncnc43)[C@H](O)[C@@H]2O)[C@@H](O)[C@H]1O` [AP(3)A, P1P3-DiAdenosine-triphosphate], for which the “degradation by ENPP4” value in assay [3] is reported as “degraded by ENPP4”.

Turning to `Nc1ncnc2c1ncn2[C@@H]1O[C@H](COP(=O)(O)OP(=O)(O)OP(=O)(O)OP(=O)(O)OC[C@H]2O[C@@H](n3cnc4c(N)ncnc43)[C@H](O)[C@@H]2O)[C@@H](O)[C@H]1O` [AP(4)A, P1P4-DiAdenosine-tetraphosphate], in assay [3], the “degradation amount / activity of degrading by ENPP4” value is listed as “lower than the activity of degrading Ap(3)A” and the “degradation by ENPP4” value is recorded as “degraded by ENPP4”.

Turning to `Nc1ncnc2c1ncn2[C@@H]1O[C@H](COP(=O)(O)OP(=O)(O)OP(=O)(O)OP(=O)(O)OP(=O)(O)OP(=O)(O)OC[C@H]2O[C@@H](n3cnc4c(N)ncnc43)[C@H](O)[C@@H]2O)[C@@H](O)[C@H]1O` [AP(6)A, P1P6-DiAdenosine-hexaphosphate], the “degradation by ENPP4” value in assay [3] was “degraded by ENPP4”.

Consider `Nc1ncnc2c1ncn2[C@@H]1O[C@H](COP(=O)(O)OP(=O)(O)OP(=O)(O)O)[C@@H](O)[C@H]1O` [ATP], for which the “concentration dependence of inhibitory activity of pNP-PC degradation by ENPP5” value in assay [1] (FIG. 13) was “inhibitory activity of pNP-PC degradation depending on concentration of ATP was detected”. Further, in assay [3], the “degradation amount / activity of degrading by ENPP4” value is “small” and the “degradation by ENPP4” value is given as “degraded by ENPP4”. In assay [3] (conclusion from Examples 16 and 19), the “inhibitory activity against ENPP4 (concluded from small degradation and high inhibition)” value is “has an inhibitory activity against ENPP4”. The “concentration dependence of inhibitory activity against ENPP4” value in assay [4] (FIG. 12, pNP-TMP degradation) is “inhibitory activity depending on concentration of ATP was detected”.

With `C[N+](C)(C)CCOP(=O)(O)OP(=O)([O-])OC[C@H]1O[C@@H](n2ccc(N)nc2=O)[C@H](O)[C@@H]1O` [CDP-Choline], in assay [2], the “degradation by ENPP5 (NMP detected as reacted product)” value is “degraded by ENPP5”. The “degradation by ENPP4” value in assay [3] was “degraded by ENPP4”. Moreover, in assay [4] (1 mM compound, pH 8.5, 37° C., 2 hours, FIG. 11 (pNP-TMP), read-out: inhibitory activity of pNP-TMP or pNP-PP degradation), the inhibition at 1000 µM was at least 60%.

For the compound `Nc1ccn([C@@H]2O[C@H](COP(=O)(O)OP(=O)(O)O)[C@@H](O)[C@H]2O)c(=O)n1` [CDP], the “degradation by ENPP4” value in assay [3] is “degraded by ENPP4”.

Turning to `Nc1ccn([C@@H]2O[C@H](COP(=O)(O)OP(=O)(O)OP(=O)(O)O)[C@@H](O)[C@H]2O)c(=O)n1` [CTP], the “degradation by ENPP4” value in assay [3] is reported as “degraded by ENPP4”.

For the compound `C[N+](C)(C)CCOP(=O)([O-])OC[C@H](O)CO` [Glycerophosphorilcholine], the “inhibitory activity of pNP-PP degradation” value in assay [5] (pH 9.6, 37° C., 2 hours, 1 mM printed for ADP) is at least 80%.

For `O=c1ccn([C@@H]2O[C@H](COP(=O)(O)OP(=O)(O)O)[C@@H](O)[C@H]2O)c(=O)[nH]1` [UDP], the “degradation by ENPP5 (NMP detected as reacted product)” value in assay [2] is recorded as “degraded by ENPP5”. Further, in assay [3], the “degradation by ENPP4” value is on record as “degraded by ENPP4”.

For the compound `O=c1ccn([C@@H]2O[C@H](COP(=O)(O)OP(=O)(O)OP(=O)(O)O)[C@@H](O)[C@H]2O)c(=O)[nH]1` [UTP], the “degradation by ENPP4” value in assay [3] is listed as “degraded by ENPP4”.

As for Lysophosphatidylcholine, in assay [5] (FIG. 14), the “concentration dependence of inhibitory activity of pNP-TMP degradation by ENPP6” value is on record as “inhibitory activity of pNP-TMP degradation depending on concentration of LPC was detected”.

On to diadenosine 5-phosphate [Ap(5)A], for which the “degradation by ENPP4” value in assay [3] is recorded as “degraded by ENPP4”.
